Tests used:
[1] = biological target: T1, SIK1 kinase (aa1-303, Thermo Fisher) (Homo sapiens, UniProt P57059); assay: Biochemical activities determination for SIK1 protein (TR-FRET); conditions: 110 uM ATP, 0.5 μM STK1 substrate
T1 construct: SIK1 kinase (aa1-303, Thermo Fisher); purchased Thermo Fisher
In short: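 TR-FRET kinase assay with SIK1 (aa1-303), 110 uM ATP, 0.5 μM STK1 substrate and 0-10 μM compound in Tris pH 7.5 with MgCl2, EGTA, DTT, Triton X-100. Enzyme preincubated with compound 60 min, reaction 180 min at room temperature; 665/620 nm ratio after overnight detection; IC50 from four-parameter logistic fit.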

[2] = biological target: T2, SIK2 kinase (full length, Thermo Fisher) (Homo sapiens, UniProt Q9H0K1); assay: Biochemical activities determination for SIK2 protein (TR-FRET); conditions: 80 uM ATP, 0.5 μM substrate
T2 construct: SIK2 kinase (full length, Thermo Fisher); purchased Thermo Fisher
In short: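 Full-length SIK2 preincubated 60 min with 0–10 μM compound, then reacted 180 min at room temperature with 80 uM ATP and 0.5 μM biotinylated substrate (pH 7.5 Tris/MgCl2 buffer). Phosphorylation detected by TR-FRET (665/620 nm ratio, cryptate antibody/streptavidin-XL665) after overnight incubation; IC50 from four-parameter logistic fit.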

[3] = biological target: T3, SIK3 kinase (aa59-365, Thermo Fisher) (Homo sapiens, UniProt Q9Y2K2); assay: Biochemical activities determination for SIK3 protein (TR-FRET); conditions: 125 uM ATP, 0.5 μM STK1 substrate
T3 construct: SIK3 kinase (aa59-365, Thermo Fisher); purchased Thermo Fisher
In short: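 SIK3 (aa59-365) was preincubated with compound (0-10 μM) for 60 min at room temperature in Tris buffer pH 7.5. The reaction was then started with 125 uM ATP and 0.5 μM STK1 substrate and run 180 min at room temperature. Phospho-substrate was detected by HTRF (665/620 nm ratio), and IC50 came from a four-parameter logistic fit.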

T2 sequence (Q9H0K1 whole entry): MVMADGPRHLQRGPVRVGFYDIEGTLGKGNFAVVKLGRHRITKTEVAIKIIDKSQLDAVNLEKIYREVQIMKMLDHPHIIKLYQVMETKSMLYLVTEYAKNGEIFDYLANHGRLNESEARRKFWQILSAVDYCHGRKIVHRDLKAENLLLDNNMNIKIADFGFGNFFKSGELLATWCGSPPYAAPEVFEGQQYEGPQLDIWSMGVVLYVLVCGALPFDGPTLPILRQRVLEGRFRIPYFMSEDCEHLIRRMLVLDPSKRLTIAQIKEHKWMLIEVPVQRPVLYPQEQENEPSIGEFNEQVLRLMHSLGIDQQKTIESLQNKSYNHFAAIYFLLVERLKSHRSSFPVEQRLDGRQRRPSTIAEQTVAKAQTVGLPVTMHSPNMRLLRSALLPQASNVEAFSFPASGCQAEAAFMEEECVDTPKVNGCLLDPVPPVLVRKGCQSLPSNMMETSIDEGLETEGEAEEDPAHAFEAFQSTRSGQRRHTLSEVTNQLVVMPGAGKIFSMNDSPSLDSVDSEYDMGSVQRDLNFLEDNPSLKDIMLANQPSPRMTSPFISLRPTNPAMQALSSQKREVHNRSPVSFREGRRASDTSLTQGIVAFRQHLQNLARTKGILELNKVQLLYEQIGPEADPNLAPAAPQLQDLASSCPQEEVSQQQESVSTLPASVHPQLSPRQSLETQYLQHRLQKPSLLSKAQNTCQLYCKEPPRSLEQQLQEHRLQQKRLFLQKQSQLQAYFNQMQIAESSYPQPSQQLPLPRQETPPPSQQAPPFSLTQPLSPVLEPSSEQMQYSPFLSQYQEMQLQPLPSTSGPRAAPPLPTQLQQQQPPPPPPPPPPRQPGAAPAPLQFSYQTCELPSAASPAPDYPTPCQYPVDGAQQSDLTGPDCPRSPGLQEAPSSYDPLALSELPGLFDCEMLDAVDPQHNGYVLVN
T3 sequence (Q9Y2K2 59-365): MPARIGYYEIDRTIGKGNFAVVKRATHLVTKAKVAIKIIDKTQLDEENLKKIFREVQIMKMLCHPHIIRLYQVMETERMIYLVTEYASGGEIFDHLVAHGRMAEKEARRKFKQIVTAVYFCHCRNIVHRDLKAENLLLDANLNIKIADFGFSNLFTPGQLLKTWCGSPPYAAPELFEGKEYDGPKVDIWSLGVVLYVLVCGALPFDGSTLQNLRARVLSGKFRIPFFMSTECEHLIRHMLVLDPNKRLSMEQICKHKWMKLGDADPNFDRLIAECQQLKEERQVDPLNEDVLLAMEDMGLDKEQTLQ
T1 sequence (P57059 1-303): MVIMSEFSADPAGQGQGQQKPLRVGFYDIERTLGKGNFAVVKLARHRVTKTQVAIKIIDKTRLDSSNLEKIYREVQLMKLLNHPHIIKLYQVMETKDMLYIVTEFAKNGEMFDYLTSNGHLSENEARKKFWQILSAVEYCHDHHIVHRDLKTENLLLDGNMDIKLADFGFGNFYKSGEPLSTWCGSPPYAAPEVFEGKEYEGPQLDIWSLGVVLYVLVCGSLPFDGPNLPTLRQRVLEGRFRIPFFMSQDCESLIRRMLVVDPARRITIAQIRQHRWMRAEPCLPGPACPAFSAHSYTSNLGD

| Structure (SMILES) | IC50 [1] [nM] | IC50 [2] [nM] | IC50 [3] [nM] |
| --- | --- | --- | --- |
| COc1cc(-c2coc3cc(OCCN4CC[C@H](C)C4)ccc23)cc(OC(F)F)c1C(=O)N[C@@H]1C[C@@H]1F [Compound 81, 2-(difluoromethoxy)-N-((1R,2S)-2-fluorocyclopropyl)-6-methoxy-4-(6-(2-((S)-3-methylpyrrolidin-1-yl)ethoxy)benzofuran-3-yl)benzamide] | 1890 | 11 | 32 |
| COc1cc(-c2coc3cc(OCCN4CC[C@H](OC)C4)ccc23)cc(OC(F)F)c1C(=O)N[C@@H]1C[C@@H]1F [Compound 82, 2-(difluoromethoxy)-N-((1R,2S)-2-fluorocyclopropyl)-6-methoxy-4-(6-(2-((S)-3-methoxypyrrolidin-1-yl)ethoxy)benzofuran-3-yl)benzamide] | 1470 | 15 | 57 |
| COc1cc(-c2coc3cc(OCCN4CCN(C)CC4)ccc23)cc(OC(F)F)c1C(=O)N[C@@H]1C[C@@H]1F [Compound 83, 2-(difluoromethoxy)-N-((1R,2S)-2-fluorocyclopropyl)-6-methoxy-4-(6-(2-(4-methylpiperazin-1-yl)ethoxy)benzofuran-3-yl)benzamide] | 737 | 13 | 75 |
| COc1cc(-c2coc3cc(OCCCN4CCCCC4)ccc23)cc(OC(F)F)c1C(=O)N[C@@H]1C[C@@H]1F [Compound 84, 2-(difluoromethoxy)-N-((1R,2S)-2-fluorocyclopropyl)-6-methoxy-4-(6-(3-(piperidin-1-yl)propoxy)benzofuran-3-yl)benzamide] | 559 | 9 | 44 |
| COc1cc(-c2coc3cc(OCCCN4CCN(C)CC4)ccc23)cc(OC(F)F)c1C(=O)N[C@@H]1C[C@@H]1F [Compound 85, 2-(difluoromethoxy)-N-((1R,2S)-2-fluorocyclopropyl)-6-methoxy-4-(6-(3-(4-methylpiperazin-1-yl)propoxy)benzofuran-3-yl)benzamide] | 236 | 8.1 | 32.8 |
| COc1cc(-c2coc3cc(OCCCN4CCOCC4)ccc23)cc(OC(F)F)c1C(=O)N[C@@H]1C[C@@H]1F [Compound 86, 2-(difluoromethoxy)-N-((1R,2S)-2-fluorocyclopropyl)-6-methoxy-4-(6-(3-morpholinopropoxy)benzofuran-3-yl)benzamide] | 562 | 18 | 43 |
| COc1cc(-c2coc3cc(OCCN4CCC(F)(F)C4)ccc23)cc(OC(F)F)c1C(=O)N[C@@H]1C[C@@H]1F [Compound 87, 2-(difluoromethoxy)-4-(6-(2-(3,3-difluoropyrrolidin-1-yl)ethoxy)benzofuran-3-yl)-N-((1R,2S)-2-fluorocyclopropyl)-6-methoxybenzamide] | 1090 | 78 | 22 |
| COc1cc(-c2coc3cc(OCCN4CCC[C@H](C)C4)ccc23)cc(OC(F)F)c1C(=O)N[C@@H]1C[C@@H]1F [Compound 88, 2-(difluoromethoxy)-N-((1R,2S)-2-fluorocyclopropyl)-6-methoxy-4-(6-(2-((S)-3-methylpiperidin-1-yl)ethoxy)benzofuran-3-yl)benzamide] | 4540 | 17 | 68 |
| COc1cc(-c2coc3cc(OCCN4CCC[C@@H](C)C4)ccc23)cc(OC(F)F)c1C(=O)N[C@@H]1C[C@@H]1F [Compound 89, 2-(difluoromethoxy)-N-((1R,2S)-2-fluorocyclopropyl)-6-methoxy-4-(6-(2-((R)-3-methylpiperidin-1-yl)ethoxy)benzofuran-3-yl)benzamide] | 4210 | 24 | 74 |
| COc1cc(-c2coc3cc(OCCN4CC[C@H](C(C)C)C4)ccc23)cc(OC(F)F)c1C(=O)N[C@@H]1C[C@@H]1F [Compound 90, 2-(difluoromethoxy)-N-((1R,2S)-2-fluorocyclopropyl)-4-(6-(2-((R)-3-isopropylpyrrolidin-1-yl)ethoxy)benzofuran-3-yl)-6-methoxybenzamide] | 2350 | 13 | 33 |
| COc1cc(-c2coc3cc(OCCN4CCCC[C@@H]4C)ccc23)cc(OC(F)F)c1C(=O)N[C@@H]1C[C@@H]1F [Compound 91, 2-(difluoromethoxy)-N-((1R,2S)-2-fluorocyclopropyl)-6-methoxy-4-(6-(2-((S)-2-methylpiperidin-1-yl)ethoxy)benzofuran-3-yl)benzamide] | 2500 | 31 | 74 |
| COc1cc(-c2coc3cc(OCCN4CCCC[C@H]4C)ccc23)cc(OC(F)F)c1C(=O)N[C@@H]1C[C@@H]1F [Compound 92, 2-(difluoromethoxy)-N-((1R,2S)-2-fluorocyclopropyl)-6-methoxy-4-(6-(2-((R)-2-methylpiperidin-1-yl)ethoxy)benzofuran-3-yl)benzamide] | 3010 | 32 | 104 |
| COc1cc(-c2coc3cc(OCCN4CCC(C)(C)C4)ccc23)cc(OC(F)F)c1C(=O)N[C@@H]1C[C@@H]1F [Compound 93, 2-(difluoromethoxy)-4-(6-(2-(3,3-dimethylpyrrolidin-1-yl)ethoxy)benzofuran-3-yl)-N-((1R,2S)-2-fluorocyclopropyl)-6-methoxybenzamide] | 2530 | 30 | 60 |
| COc1cc(-c2coc3cc(OCCN4CCC(C)CC4)ccc23)cc(OC(F)F)c1C(=O)N[C@@H]1C[C@@H]1F [Compound 94, 2-(difluoromethoxy)-N-((1R,2S)-2-fluorocyclopropyl)-6-methoxy-4-(6-(2-(4-methylpiperidin-1-yl)ethoxy)benzofuran-3-yl)benzamide] | 2870 | 33 | 74 |
| COc1cc(-c2coc3cc(OCCN4CCCC4C(F)(F)F)ccc23)cc(OC(F)F)c1C(=O)N[C@@H]1C[C@@H]1F (stereo partly drawn) [Compound 95, 2-(difluoromethoxy)-N-((1R,2S)-2-fluorocyclopropyl)-6-methoxy-4-(6-(2-(2-(trifluoromethyl)pyrrolidin-1-yl)ethoxy)benzofuran-3-yl)benzamide] | > 10000 | 507 | 117 |
| CC[C@H]1CCN(CCOc2ccc3c(-c4cc(OC)c(C(=O)N[C@@H]5C[C@@H]5F)c(OC(F)F)c4)coc3c2)C1 [Compound 96, 2-(difluoromethoxy)-4-(6-(2-((S)-3-ethylpyrrolidin-1-yl)ethoxy)benzofuran-3-yl)-N-((1R,2S)-2-fluorocyclopropyl)-6-methoxybenzamide] | 2040 | 22 | 43 |
| COc1cc(-c2coc3cc(OCCN4CCCC4)ccc23)cc(OC(F)F)c1C(=O)N[C@@H]1C[C@H]1F [Compound 97, 2-(difluoromethoxy)-N-((1R,2R)-2-fluorocyclopropyl)-6-methoxy-4-(6-(2-(pyrrolidin-1-yl)ethoxy)benzofuran-3-yl)benzamide] | 8350 | 85 | 289 |
| COc1cc(-c2coc3cc(OCCN4CCCC4)ccc23)cc(OC(F)F)c1C(=O)N[C@H]1C[C@H]1F [Compound 98, 2-(difluoromethoxy)-N-((1S,2R)-2-fluorocyclopropyl)-6-methoxy-4-(6-(2-(pyrrolidin-1-yl)ethoxy)benzofuran-3-yl)benzamide] | > 10000 | 128 | 525 |
| COc1cc(-c2coc3cc(OCCN4CCCC4)ccc23)cc(OC(F)F)c1C(=O)N[C@H]1C[C@@H]1F [Compound 99, 2-(difluoromethoxy)-N-((1S,2S)-2-fluorocyclopropyl)-6-methoxy-4-(6-(2-(pyrrolidin-1-yl)ethoxy)benzofuran-3-yl)benzamide] | > 10000 | 269 | 759 |
| COc1cc(-c2coc3cc(OCCN4CCCC4)ccc23)cc(OC(F)F)c1C(=O)NC1CC1(F)F (stereo not drawn) [Compound 100, N-(2,2-difluorocyclopropyl)-2-(difluoromethoxy)-6-methoxy-4-(6-(2-(pyrrolidin-1-yl)ethoxy)benzofuran-3-yl)benzamide] | 3590 | 31 | 80 |
| O=C(NC1CC1)c1c(OC(F)F)cc(-c2coc3cc(OCCN4CCCC4)ccc23)cc1O[C@H]1CC[C@H](O)CC1 [Compound 101, N-cyclopropyl-2-(difluoromethoxy)-6-(((1r,4r)-4-hydroxycyclohexyl)oxy)-4-(6-(2-(pyrrolidin-1-yl)ethoxy)benzofuran-3-yl)benzamide] | > 10000 | 8970 | > 10000 |
| O=C(NC1CC1)c1c(OC(F)F)cc(-c2coc3cc(OCCN4CCCC4)ccc23)cc1O[C@H]1CC[C@@H](O)CC1 [Compound 102, N-cyclopropyl-2-(difluoromethoxy)-6-(((1s,4s)-4-hydroxycyclohexyl)oxy)-4-(6-(2-(pyrrolidin-1-yl)ethoxy)benzofuran-3-yl)benzamide] | > 10000 | 2480 | > 10000 |

From patent US20260085053A1, “BENZOFURAN DERIVATIVES AS SIK INHIBITORS AND THE USE THEREOF” (BEONE MEDICINES I GMBH, priority 2023, published 2026)
